Measurements from patent publication US20220143072A1, “Chitosan nitrate for use as a nitric oxide donor (NO donor)” (NO-ceuticals B.V., priority 2019, published 2022).

Assay: Fasting salivary nitrate and nitrite after oral nitrate (Quantofix test strips)
Set-up: species or system human
Settings: in vivo
Protocol: Measuring the fasting value of salivary nitrate and nitrite does give a reflection of the plasma value of nitrate and nitrite. The patient took one capsule chitosan nitrate, containing 120 mg NO3− anion, at 11:00 pm. […] An equivalent amount of 120 mg NO3− was taken at 11:00 pm. […] Oligo chitosan is absorbed before reaching the colon and NO3− will then also be absorbed. Quantofix test strips nitrate and nitrite from Macherey-Nagel company, Germany, were used for measurement of NO3− and NO2−. These test strips allow semiquantitative measurement. Reading of the test strips was performed with a Quantofix Relax reader. Other tests were done based on the ingestion of the daily dose in the morning and by measuring the salivary nitrate and salivary nitrite 24 hours later. Two capsules of chitosan nitrate contained an equivalent amount of 240 mg NO3−. Ten measurements were done for both chitosan nitrate and KNO3 salt.

## chitosan nitrate
  nitrite values in saliva relative to KNO3: three times higher
